Experimental data: patent publication US20010051654A1, “Treatment of inflammatory and autoimmune diseases” (priority 1997, published 2001)
Like-named read-outs stand apart in the source and are kept apart here.

Biological target: T1, 20 S proteasome (Rattus norvegicus, UniProt P28075)
T1 sequence (P28075 60-263): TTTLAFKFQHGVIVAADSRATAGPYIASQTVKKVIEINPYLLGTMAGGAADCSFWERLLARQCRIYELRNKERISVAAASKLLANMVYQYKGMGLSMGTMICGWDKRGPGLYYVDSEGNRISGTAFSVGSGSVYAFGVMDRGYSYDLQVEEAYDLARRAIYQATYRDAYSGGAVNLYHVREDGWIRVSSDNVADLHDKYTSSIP
Experimental: In two studies, female Wistar rats (150 to 200 g) were administered a single intravenous dose of 1 (0.03, 0.1 and 0.3 mg/kg in a dose volume of 1.0 mL/kg). […] Tissue samples were collected from liver and brain at 1.0, 24 and 48 h following administration for evaluation of 20 S proteasome activity.
In a third study, male Sprague-Dawley rats (250 to 450 g) were administered a single intravenous dose of 1 (0.1 and 0.3 mg/kg in a dose volume of 1.0 mL/kg). […] Blood and tissue samples were collected 1.0 h following administration for evaluation of 20 S proteasome activity. The tissues collected were brain, colon, liver, muscle (gastrocnemius), prostate and testes.

[1] = 1.0 h after single IV 0.1 and 0.3 mg/kg, male Sprague-Dawley rats

How did the “20 S proteasome activity in rat liver” value (1.0 h after single IV 0.03, 0.1, 0.3 mg/kg, female Wistar rats) turn out when `CC(C)C[C@H](NC(=O)[C@H](Cc1ccccc1)NC(=O)c1cnccn1)B(O)O` [Compound 1, N-(pyrazine)carbonyl-L-phenylalanine-L-leucine boronic acid] was run?
The value was “significant (p<0.05) dose-related decrease”.

What about the “20 S proteasome activity in peripheral white blood cells, colon, liver, muscle (gastrocnemius), and prostate” value [1] of the same molecule?
Its value is “Significant (p<0.05) dose-related decreases”.

What about the “20 S proteasome inhibition in brain and testes” value [1] of the same molecule?
The value was “No 20 S proteasome inhibition”.

What about the “20 S proteasome activity in rat liver” value (24 h after single IV, high dose group 0.3 mg/kg, female Wistar rats) of the same molecule?
The value was “smaller, but remained significant (p<0.05) in the high dose group”.

What about the “20 S proteasome activity in rat liver” value (48 h after single IV, female Wistar rats) of the same molecule?
The value was “returned to baseline”.

What about the “penetration into brain tissue” value (inferred from absent 20 S proteasome inhibition, female Wistar rats) of the same molecule?
Its value is “lack of penetration”.

And the “penetration into brain and testes” value (inferred from absent 20 S proteasome inhibition, male Sprague-Dawley rats)?
The value was “lack of 1 penetration”.

What about the “20 S proteasome inhibition in brain tissue” value (single IV 0.03, 0.1, 0.3 mg/kg, female Wistar rats) of the same molecule?
Its value is “No 20 S proteasome inhibition”.
